The results in this text go back to US9763909B2, “Methods for treating inflammation and pain” (Olatec Therapeutics LLC, priority 2012, dated 2017).

For one test, the system named is IL-1β. Nature of the test: Inhibition of IL-1β secretion in LPS-stimulated PBMCs. It is filed as cell-based. Particulars: Homo sapiens, PBMC; PBMCs stimulated with LPS (50 pg/mL); read-out: EC50 for inhibiting IL-1β. The method, then:
(§1) Objective: Test 3-(methylsulfonyl)acrylonitrile for inhibition of cytokine secretion in peripheral blood mononuclear cells (PBMCs) stimulated with lipopolysaccharide (LPS).
(§2) Cytokines: IL-1β, IL-6, TNFα
(§3) Test Compound Dose Concentrations: 50, 10, 5, 1, 0.5, 0.1 μM
(§4) Cells negative control: Vehicle only/No LPS
(§5) Positive control: Dexamethasone (100 nM, n=2)
(§6) 1. Microtiter plates were seeded with 1×10^4 PBMCs/well in […], culture medium (RPMI 1640, 10% FBS, 1% Pen/Strep, 2 mM L-Alanyl-L-glutamine)
(§7) 2. The plates were incubated at 37° C. in 5% CO2 for 1 hour.
(§8) 3. 10 μL of test compound (at different concentrations), dexamethasone, and vehicle controls were added to appropriate wells, and the plates were incubated at 37° C. in 5% CO2 for 1 hour.
(§9) 4. 40 μL of LPS (50 pg/mL final) were added and the plates were incubated at 37° C. in 5% CO2 for 1 hour.
(§10) 5. The plates were centrifuged at 1000 rpm for 10 minutes and supernatants were collected.
(§11) 6. The supernatants were assayed for IL-1β, IL-6, TNFα levels using the Luminex Bead kit.
(§12) 7. EC50 values were determined.

In another test the test system is IL-6. Kind of test: Inhibition of IL-6 secretion in LPS-stimulated PBMCs. It is filed as cell-based. Particulars: Homo sapiens, PBMC; PBMCs stimulated with LPS (50 pg/mL); read-out: EC50 for inhibiting IL-6. The method, then: as §1, §2, §3, §4, §5, §6, §7, §8, §9, §10, §11, §12
A further test relates to TNFα. Nature of the test: Inhibition of TNFα secretion in LPS-stimulated PBMCs. The format is cell-based. Particulars: Homo sapiens, PBMC; PBMCs stimulated with LPS (50 pg/mL); read-out: EC50 for inhibiting TNFα. The method, then: as §1, §2, §3, §4, §5, §6, §7, §8, §9, §10, §11, §12
The test system of test [1] is arachidonic acid induced ear swelling. Kind of test: Topical arachidonic acid induced ear swelling model, oral administration. The format is in vivo, mice. Particulars: for % Inhibition: ear swelling at 60 minutes. The method, then: The test compound, dexamethasone (positive control), and vehicle were orally administered to mice and evaluated for anti-inflammatory activity in the topical arachidonic acid induced ear swelling model in mice. […] All animals were maintained in a controlled temperature (22-24° C.) and humidity (60%-70%) environment with 12-hour light/dark cycles for at least one week prior to use. Arachidonic acid (0.5 mg in 20 μL acetone) was applied topically onto the anterior and posterior surfaces of the right ear of test animals to induce inflammation. […] At 60 minutes after arachidonic acid induction of ear edema, the thickness of the right ear and the left ear was measured and the difference calculated as an indication of the inflammation in the right ear.

A further test deals with tail-flick latency. Kind of test: Tail-flick latency (52° C. water bath), potentiation of morphine analgesia. It is filed as in vivo, mice. The method, then:
The response of the mice to nociceptive stimuli was evaluated using the time of tail-flick or tail-flick latency from 52° C. water bath. Briefly, the animal was placed in a restrainer with its tail outside. The tail (distal ⅓rd) was immersed into 52° C. water and the time for the mouse to flick its tail out of the water was recorded. The maximum exposure permitted was 10 seconds. If there was no response within 10 seconds, the animal tail was removed from the water to prevent damage to the tail. Baseline data were collected using the tail flick procedure 2 times over 1 hour, prior to any drug administration. The last baseline response data point was used as basal tail flick latency.
3-(methylsulfonyl)acrylonitrile was dissolved in 0.5% methyl cellulose (MC) to 2 mg/mL, and orally administered to mice (n=5) in a volume of 10 ml/kg (20 mg/kg), 1 hour prior to morphine dosing. One mL plastic disposal tuberculin syringes (Becton Dickinson & Co. Franklin Lakes, N.J.) and 20 gauge×38 mm flexible plastic feeding tubes (Instech Laboratories, Plymouth Meeting, Pa.) were used for oral drug administration. Morphine at 5 mg/kg in saline was subcutaneously administered to mice at time zero.
Tail flick measurements were made at 5, 15, 30, 45, 60, and 75 minutes post-morphine administration.
Statistical evaluation was done using an appropriate analysis of variance (ANOVA) using tail flick latencies. […] Analysis with p-values <0.05 is considered significant.
For orientation: Hot-plate and tail-flick tests time the reaction to a heat stimulus.

The structures appear in SMILES notation.

What is called EC50 is the concentration giving half of the maximal effect. What is called % Inhibition is the change of the read-out against control, counted positive when it falls. Low readings indicate a response near the control, high ones a response far below the control. Consider `CS(=O)(=O)C=CC#N` [3-(methylsulfonyl)acrylonitrile], for which the values for the EC50 in the test with IL-1β, in the test on IL-6 and in the test with TNFα were 160 nM, 190 nM and 300 nM, respectively. Besides, the “% Inhibition” value was 11% in test [1] (0.1 mg/kg oral gavage 1 hour before arachidonic acid); 11% in test [1] (0.3 mg/kg oral gavage 1 hour before arachidonic acid); 9% in test [1] (1 mg/kg oral gavage 1 hour before arachidonic acid); 13% in test [1] (3 mg/kg oral gavage 1 hour before arachidonic acid); 26% in test [1] (10 mg/kg oral gavage 1 hour before arachidonic acid). Moreover, the “inhibition in arachidonic acid induced ear swelling (in words)” value in test [1] (10 mg/kg oral, at 60 minutes, vs vehicle, t-test p<0.05) is on record as “significant inhibition”. Besides, the “analgesic effect (tail flick), morphine plus compound” value in the test with tail-flick latency (20 mg/kg oral 1 hour before morphine 5 mg/kg s.c., 75 minutes post dosing) is listed as “strong analgesic effects”. In addition, the “latency of tail flick, morphine plus compound vs morphine alone” value in the test on tail-flick latency (20 mg/kg oral 1 hour before morphine 5 mg/kg s.c., measured at 30, 60, and 75 minutes post morphine dosing) is on record as “increases the latency of tail flick significantly”.
Turning to `CN1CC[C@]23c4c5ccc(O)c4O[C@H]2[C@@H](O)C=C[C@H]3[C@H]1C5` [morphine, reference compound], the “analgesic effect (tail flick), morphine alone” value in the test on tail-flick latency (morphine 5 mg/kg s.c., 75 minutes post dosing) is “no effect”.
In the case of `C[C@@H]1C[C@H]2[C@@H]3CCC4=CC(=O)C=C[C@]4(C)[C@@]3(F)[C@@H](O)C[C@]2(C)[C@@]1(O)C(=O)CO` [Dexamethasone, reference compound], in test [1] (0.3 mg/kg oral gavage 3 hour before arachidonic acid), the “% Inhibition” value stood at 39%.
